From ChEMBL document CHEMBL1212720, “Identification of the toxic trigger in mushroom poisoning” (Nat Chem Biol, 2009)

Assays:
[1] = Toxicity in po dosed mouse; format: organism-based; conditions: in vivo
[2] = test system: Mus musculus; assay: Toxicity in po dosed ICR mouse assessed as decreased in mobility after 3 hrs; format: organism-based; conditions: in vivo
[3] = test system: Rattus norvegicus; assay: (§1) Toxicity in po dosed rat; format: organism-based; conditions: in vivo
[4] = as §1; format: organism-based; conditions: in vivo
[5] = test system: Mus musculus; assay: Induction of rhabdomyolysis in ICR mouse assessed as serum creatine […] level at 70 mg/kg, po after 4 hrs by spectrophotometry (reference value: 240 +/- 34 U/L); format: organism-based; set-up: dose 70 mg/kg, route oral; conditions: in vivo
[6] = test system: Micrococcus; assay: Antibacterial activity against Micrococcus after 18 to 48 hrs by serial dilution method; format: functional
[7] = species: Homo sapiens; assay: Cytotoxicity against human astrocytoma cells at 100 ug/ml by MTT assay; format: functional, cell-based
[8] = species: Mus musculus; assay: Cytotoxicity against mouse neuronal tumor cells at 100 ug/ml by MTT assay; format: functional, cell-based
[9] = test system: Mus musculus; assay: Induction of rhabdomyolysis in ICR mouse assessed as serum creatine […] level at 5 mg/kg, po after 4 hrs by spectrophotometry (reference value: 240 +/- 34 U/L); format: organism-based; set-up: dose 5 mg/kg, route oral; conditions: in vivo
[10] = test system: Candida; assay: Antifungal activity against Candida after 18 to 48 hrs by serial dilution method; format: functional
[11] = test system: Mycobacterium; assay: Antibacterial activity against Mycobacterium after 18 to 48 hrs by serial dilution method; format: functional
[12] = Cytotoxicity against mouse DRG neuron at 100 ug/ml by MTT assay
[13] = test system: Saccharomyces; assay: Antifungal activity against Saccharomyces after 18 to 48 hrs by serial dilution method; format: functional
[14] = test system: sarcoma; assay: Cytotoxicity against human synovial sarcoma cells at 100 ug/ml by MTT assay; format: functional, cell-based
[15] = test system: Corynebacterium; assay: Antibacterial activity against Corynebacterium after 18 to 48 hrs by serial dilution method; format: functional
[16] = species: Homo sapiens; assay: Cytotoxicity against human neuronal tumor cells at 100 ug/ml by MTT assay; format: functional, cell-based
[17] = Antibacterial activity against Cryptococcus after 18 to 48 hrs by serial dilution method; format: functional
[18] = Cytotoxicity against mouse hyphalamic cells at 100 ug/ml by MTT assay; format: cell-based
[19] = test system: Klebsiella; assay: Antibacterial activity against Klebsiella after 18 to 48 hrs by serial dilution method; format: functional
[20] = test system: Shigella; assay: Antibacterial activity against Shigella after 18 to 48 hrs by serial dilution method; format: functional
[21] = test system: Serratia; assay: Antibacterial activity against Serratia after 18 to 48 hrs by serial dilution method; format: functional
[22] = test system: Escherichia; assay: Antibacterial activity against Escherichia after 18 to 48 hrs by serial dilution method; format: functional
[23] = Chemical stability of the compound at 20 degC assessed as half life; format: physicochemical
[24] = test system: Staphylococcus; assay: Antibacterial activity against Staphylococcus after 18 to 48 hrs by serial dilution method; format: functional
[25] = test system: Enterococcus; assay: Antibacterial activity against Enterococcus after 18 to 48 hrs by serial dilution method; format: functional
[26] = test system: Proteus; assay: Antibacterial activity against Proteus after 18 to 48 hrs by serial dilution method; format: functional
[27] = test system: Salmonella; assay: Antibacterial activity against Salmonella after 18 to 48 hrs by serial dilution method; format: functional
[28] = test system: Mus musculus; assay: Toxicity in ip dosed ICR mouse assessed as decreased in mobility after 3 hrs; format: organism-based; conditions: in vivo
[29] = test system: Bacillus; assay: Antibacterial activity against Bacillus after 18 to 48 hrs by serial dilution method; format: functional
[30] = test system: Pseudomonas; assay: Antibacterial activity against Pseudomonas after 18 to 48 hrs by serial dilution method; format: functional

Compound: C=C(C)C(=O)O [METHACRYLIC ACID]
- LD50 [1]: 1600 mg/kg

Compound: CCCC(=O)O [BUTYRIC ACID]
- LD100 [2]: 5000 mg/kg
- LDLO [3]: 500 mg/kg
- LD50 [4]: 8790 mg/kg

Compound: CCC(=O)O [PROPIONIC ACID]
- LD50 [1]: 5100 mg/kg

Compound: C#CC(=O)O [PROPIOLIC ACID]
- LD50 [1]: 100 mg/kg

Compound: CC1=C(C)C1C(=O)O
- LD100 [2]: > 250 mg/kg

Compound: CC(=O)O [ACETIC ACID]
- LD50 [1]: 4960 mg/kg
- LD100 [2]: 2500 mg/kg

Compound: C/C=C/C(=O)O [CROTONIC ACID]
- LD50 [1]: 400 mg/kg
- LD100 [2]: 2500 mg/kg

Compound: CC1=CC1C(=O)O (centres undefined)
- LD100 [2]: 50 mg/kg

Compound: Nc1ccc(N)cc1
- Activity [5]: 397 U/L

Compound: O=C(O)C1C=C1
- MIC [6]: > 100 µg/mL
- Activity [7]: Not toxic
- Activity [8]: Not toxic
- Activity [9]: 3441 U/L
- MIC [10]: > 100 µg/mL
- MIC [11]: > 100 µg/mL
- Activity [12]: Non-toxic
- MIC [13]: > 100 µg/mL
- Activity [14]: Not toxic
- MIC [15]: > 100 µg/mL
- Activity [16]: Not toxic
- MIC [17]: > 100 µg/mL
- Activity [18]: Non-toxic
- LD100 [2]: 2.5 mg/kg
- MIC [19]: > 100 µg/mL
- MIC [20]: > 100 µg/mL
- MIC [21]: > 100 µg/mL
- MIC [22]: > 100 µg/mL
- half-life [23]: 20 h
- MIC [24]: > 100 µg/mL
- MIC [25]: > 100 µg/mL
- MIC [26]: > 100 µg/mL
- MIC [27]: > 100 µg/mL
- LD100 [28]: 2.5 mg/kg
- MIC [29]: > 100 µg/mL
- MIC [30]: > 100 µg/mL
